Experimental data taken from PubChem BioAssay AID1963829 (Molecular Pharmacology Branch, DTP, NCI, 2024).

System: 935938-334-R-J1-PDC complex spheroid viability
Experiment: Anticancer human tumor 935938-334-R-J1-PDC patient-derived small intestine adenocarcinoma cell line growth inhibition [POLQ]
Conditions: second compound 0.316 µM; first compound 0.00316 µM; active compounds read low
Description: Multicellular complex tumor spheroid response to Polymerase (POL) inhibitors (novobiocin, ART-558, RP6685) in combination with a variety of drugs and investigational agents in selected tumor cell lines
The POL inhibitors (novobiocin, ART-558, and RP6685) were evaluated both individually and in combination with standard of care and investigational anticancer small molecules within a complex spheroid model of solid tumors. . Complex spheroids include a stromal component modeled by human endothelial cells (HUVEC) and fibroblasts modeled by human mesenchymal stem cells (MSCs). The concentration ranges selected for each drug and investigational agent were based upon clinically achievable concentrations if the clinical Cmax of the agent was known.
Compounds. The drugs and investigational agents: novobiocin (NSC847541), ART-558 (NSC835418), RP-6685 (NSC848927), peposertib (NSC802822), ceralasertib (NSC780249), elimusertib (NSC800525), camonsertib (NSC841442), AZD-1390 (NSC803789), olaparib (NSC753686), talazoparib (NSC767125), rucaparib (NSC756644), sotorasib (NSC818433), MRTX-1133 (NSC836407), SN-38 (NSC673596), topotecan (NSC609699), epotoside (NSC141540), doxorubicin (NSC123127), gemcitabine (NSC613327), 5-fluorouracil (NSC19893), paclitaxel (NSC125973), vemurafenib (NSC761431), MSA-2 (NSC828583), SN-011 (NSC837082), adavosertib (NSC754352), prexasertib (NSC758257), carboplatin (NSC241240) and oxaliplatin (NSC266046), were obtained from the National Cancer Institute (NCI) Developmental Therapeutics Program Chemical Repository (21). The FDA-approved anticancer drug set is available from the Developmental Therapeutics Program at https://dtp.cancer.gov/organization/dscb/obtaining/. […] The stock solutions were prepared in dimethyl sulfoxide (DMSO, Sigma-Aldrich, St. Louis, MO, cat. D2650), except for the platinum compounds which were prepared in saline (Quality Biological, Gaithersburg, MD, cat. 114-055-101), at 800-fold the tested concentration and stored at -70 degrees C prior to their use. All drugs and investigational agents were tested over a range starting from a high concentration at or near the clinical Cmax and decreasing in half-log increments. If the clinical Cmax for an agent had not been determined, the highest concentration tested was 10 microM, except for SN-38, which was tested at a high concentration of 1 microM.
Cell Culture. All cells were maintained in an incubator at 37 degrees C and 5% CO2 with 95% humidity. The PDC lines were cultured according to standard operating procedures established by the NCI PDMR (https://pdmr.cancer.gov). Table 3 of the manuscript, lists the cell lines along with the number of the three cell types plated to form the mct-spheroids and media for tumor cell growth. After thawing, all PDC lines, except 997537-175-T-J1-PDC and 415267-285-R-J2-PDC, were cultured in Matrigel-coated flasks prepared with a working solution of 1X Ham's F-12 nutrient mix, without supplementation (Thermo Fisher Scientific, cat. 11765054), 100 U/mL penicillin-streptomycin (Thermo Fisher Scientific, cat. 15140122), and 2.5% Matrigel (Corning Inc., Corning, NY, cat. 354248) for the first three passages. The two PDC lines 997537-175-T-J1-PDC and 415267-285-R-J2-PDC were cultured on uncoated flasks. The 857933-349-R-J2-PDC line was cultured in 6C/Colon 1B media containing advanced DMEM/F-12 (Thermo Fisher Scientific, cat. 12634028), 10 mM HEPES (Thermo Fisher Scientific, cat. 15630080), 1X GlutaMAX supplement (Thermo Fisher Scientific, cat. 35050061), 0.1 mg/mL primocin (InvivoGen, San Diego, CA, cat. ant-pm-2), 10% defined fetal bovine serum, heat inactivated (HyClone Laboratories Inc., Logan, UT, cat. SH30070.03HI), 50% L-WRN conditioned media (ATCC, cat. CRL-3276), 1.25 mM N-Acetyl-L-cysteine (Sigma-Aldrich, cat. A9165), 10 mM nicotinamide (Sigma-Aldrich, cat. N0636), 1X B-27 supplement (Thermo Fisher Scientific, cat. 17504044), 1X N-2 supplement (Thermo Fisher Scientific, cat. […]
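Note: spheroids exposed to drugs for seven days before viability read; 100% = DMSO vehicle control wells.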

SMILES	viability, T/C [%]
CCc1c2c(nc3ccc(O)cc13)-c1cc3c(c(=O)n1C2)COC(=O)[C@]3(O)CC + Cc1cccc(N(C)C(=O)C2C(O)CCN2c2nc(C)cc(C(F)(F)F)c2C#N)c1	109

Same assay, conditions: second compound 0.316 µM; first compound 0.01 µM; active compounds read low

SMILES	viability, T/C [%]
CCc1c2c(nc3ccc(O)cc13)-c1cc3c(c(=O)n1C2)COC(=O)[C@]3(O)CC + Cc1cccc(N(C)C(=O)C2C(O)CCN2c2nc(C)cc(C(F)(F)F)c2C#N)c1	83

Same assay, conditions: second compound 0.316 µM; first compound 0.0316 µM; active compounds read low

SMILES	viability, T/C [%]
CCc1c2c(nc3ccc(O)cc13)-c1cc3c(c(=O)n1C2)COC(=O)[C@]3(O)CC + Cc1cccc(N(C)C(=O)C2C(O)CCN2c2nc(C)cc(C(F)(F)F)c2C#N)c1	40.7
O=c1[nH]cc(F)c(=O)[nH]1 + COC1C(OC(N)=O)C(O)C(Oc2ccc3c(O)c(NC(=O)c4ccc(O)c(CC=C(C)C)c4)c(=O)oc3c2C)OC1(C)C	103
COc1cc2cc(C(=O)CCC(=O)O)sc2cc1OC + Nc1ccc(C#CCN(C(=O)Cc2ncc(C(F)(F)F)cc2C(F)(F)F)c2ccc(F)cc2)nn1	108
C#Cc1c(F)ccc2cc(O)cc(-c3ncc4c(N5CC6CCC(C5)N6)nc(OCC56CCCN5CC(F)C6)nc4c3F)c12 (centres undefined) + Cc1cccc(N(C)C(=O)C2C(O)CCN2c2nc(C)cc(C(F)(F)F)c2C#N)c1	97.5

Same assay, conditions: second compound 0.316 µM; first compound 0.1 µM; active compounds read low

SMILES	viability, T/C [%]
CCc1c2c(nc3ccc(O)cc13)-c1cc3c(c(=O)n1C2)COC(=O)[C@]3(O)CC + Cc1cccc(N(C)C(=O)C2C(O)CCN2c2nc(C)cc(C(F)(F)F)c2C#N)c1	34
O=c1[nH]cc(F)c(=O)[nH]1 + COC1C(OC(N)=O)C(O)C(Oc2ccc3c(O)c(NC(=O)c4ccc(O)c(CC=C(C)C)c4)c(=O)oc3c2C)OC1(C)C	76.7
COc1cc2cc(C(=O)CCC(=O)O)sc2cc1OC + Nc1ccc(C#CCN(C(=O)Cc2ncc(C(F)(F)F)cc2C(F)(F)F)c2ccc(F)cc2)nn1	102
C#Cc1c(F)ccc2cc(O)cc(-c3ncc4c(N5CC6CCC(C5)N6)nc(OCC56CCCN5CC(F)C6)nc4c3F)c12 (centres undefined) + Cc1cccc(N(C)C(=O)C2C(O)CCN2c2nc(C)cc(C(F)(F)F)c2C#N)c1	88.9

Same assay, conditions: second compound 0.316 µM; first compound 0.316 µM; active compounds read low

SMILES	viability, T/C [%]
CCc1c2c(nc3ccc(O)cc13)-c1cc3c(c(=O)n1C2)COC(=O)[C@]3(O)CC + Cc1cccc(N(C)C(=O)C2C(O)CCN2c2nc(C)cc(C(F)(F)F)c2C#N)c1	38.3
O=c1[nH]cc(F)c(=O)[nH]1 + COC1C(OC(N)=O)C(O)C(Oc2ccc3c(O)c(NC(=O)c4ccc(O)c(CC=C(C)C)c4)c(=O)oc3c2C)OC1(C)C	71.9
COc1cc2cc(C(=O)CCC(=O)O)sc2cc1OC + Nc1ccc(C#CCN(C(=O)Cc2ncc(C(F)(F)F)cc2C(F)(F)F)c2ccc(F)cc2)nn1	89.5
C#Cc1c(F)ccc2cc(O)cc(-c3ncc4c(N5CC6CCC(C5)N6)nc(OCC56CCCN5CC(F)C6)nc4c3F)c12 (centres undefined) + Cc1cccc(N(C)C(=O)C2C(O)CCN2c2nc(C)cc(C(F)(F)F)c2C#N)c1	87.6

Same assay, conditions: second compound 0.316 µM; first compound 1 µM; active compounds read low

SMILES	viability, T/C [%]
CCc1c2c(nc3ccc(O)cc13)-c1cc3c(c(=O)n1C2)COC(=O)[C@]3(O)CC + Cc1cccc(N(C)C(=O)C2C(O)CCN2c2nc(C)cc(C(F)(F)F)c2C#N)c1	35.4
O=c1[nH]cc(F)c(=O)[nH]1 + COC1C(OC(N)=O)C(O)C(Oc2ccc3c(O)c(NC(=O)c4ccc(O)c(CC=C(C)C)c4)c(=O)oc3c2C)OC1(C)C	72.9
COc1cc2cc(C(=O)CCC(=O)O)sc2cc1OC + Nc1ccc(C#CCN(C(=O)Cc2ncc(C(F)(F)F)cc2C(F)(F)F)c2ccc(F)cc2)nn1	106
C#Cc1c(F)ccc2cc(O)cc(-c3ncc4c(N5CC6CCC(C5)N6)nc(OCC56CCCN5CC(F)C6)nc4c3F)c12 (centres undefined) + Cc1cccc(N(C)C(=O)C2C(O)CCN2c2nc(C)cc(C(F)(F)F)c2C#N)c1	54.6

Same assay, conditions: second compound 0.316 µM; first compound 3.16 µM; active compounds read low

SMILES	viability, T/C [%]
O=c1[nH]cc(F)c(=O)[nH]1 + COC1C(OC(N)=O)C(O)C(Oc2ccc3c(O)c(NC(=O)c4ccc(O)c(CC=C(C)C)c4)c(=O)oc3c2C)OC1(C)C	60.5
COc1cc2cc(C(=O)CCC(=O)O)sc2cc1OC + Nc1ccc(C#CCN(C(=O)Cc2ncc(C(F)(F)F)cc2C(F)(F)F)c2ccc(F)cc2)nn1	113
C#Cc1c(F)ccc2cc(O)cc(-c3ncc4c(N5CC6CCC(C5)N6)nc(OCC56CCCN5CC(F)C6)nc4c3F)c12 (centres undefined) + Cc1cccc(N(C)C(=O)C2C(O)CCN2c2nc(C)cc(C(F)(F)F)c2C#N)c1	41.9

Same assay, conditions: second compound 0.316 µM; first compound 10 µM; active compounds read low

SMILES	viability, T/C [%]
O=c1[nH]cc(F)c(=O)[nH]1 + COC1C(OC(N)=O)C(O)C(Oc2ccc3c(O)c(NC(=O)c4ccc(O)c(CC=C(C)C)c4)c(=O)oc3c2C)OC1(C)C	36.5
COc1cc2cc(C(=O)CCC(=O)O)sc2cc1OC + Nc1ccc(C#CCN(C(=O)Cc2ncc(C(F)(F)F)cc2C(F)(F)F)c2ccc(F)cc2)nn1	108
C#Cc1c(F)ccc2cc(O)cc(-c3ncc4c(N5CC6CCC(C5)N6)nc(OCC56CCCN5CC(F)C6)nc4c3F)c12 (centres undefined) + Cc1cccc(N(C)C(=O)C2C(O)CCN2c2nc(C)cc(C(F)(F)F)c2C#N)c1	33.4
